Source: patent publication EP0303243A2, “Use of atrial natriuretic factor (ANF), fragments and analogues thereof, for the treatment of cardiac disorders” (HOECHST AKTIENGESELLSCHAFT, priority 1987, dated 1989)
Non-standard residues stand in square brackets, D forms with d. Residues, ends and D or L forms follow the SMILES beside them.

Test system: isolierten arbeitenden Rattenherzen
Assay: Isolated working rat heart (Langendorff) with coronary occlusion (ischaemia) and reperfusion
Parameters: species or system Ratten
Details: 10^-7 mol/l; for Myokardiale Gewebsspiegel von ATP / Myokardiale Gewebsspiegel von Glykogen / Myokardiale Gewebsspiegel von KP / Myokardiale Gewebsspiegel von Laktat: ischaemic hearts perfused for 65 Minuten; for KK / LDH / Laktat: coronary venous effluent
Excerpt: Die erfindungsgemäßen Verbindungen verbessern arrhythmische Zustände, die Hämodynamik und den Stoffwechsel des Herzens. Ihre Wirkung wurde an Ratten im Test nach Langendorff geprüft (0. Langendorff "Untersuchungen am überlebenden Säugetierherzen", Pflügers Archiv […], Bd. 61, 291 - 332; H. Bardenheuer, J. Schrader "Relationships between myocardial oxygen consumption, coronary flow and adenosin release in an improved isolated working heart preparation of guinea pigs", Circulation Research, 1983, Bd. 51, 263 - 271
Die Koronargefäße der isolierten arbeitenden Rattenherzen wurden retrograd über die Aorta mit Krebs-Henseleit-Lösung perfundiert. In den linken Ventrikel wurde ein Ballon verbracht, der mit einem künstlichen "systemischen" Kreislauf verbunden war. Die Druck-Volumenarbeit wurde erreicht, indem aus dem Ballon in den systemischen Kreislauf Kochsalzlösung gepumpt wurde. Die Herzen wurden mit einem Druck von 65 mmHg perfundiert, die Nachlast betrug ebenfalls 65 mmHg und die Vorlast 7,4 mmHg. In einer Kontrollperfusionsperiode wurden die Herzen über 20 Minuten perfundiert. Danach wurde die linke Koronararterie in der Nähe ihres Austritts aus der Aorta mit einem Clip verschlossen. Nach 15 Minuten (ischämische Periode) wurde der Verschluß geöffnet und es schloß sich eine 30 minütige Reperfusionsphase an. Während dieses experimentellen Zeitverlaufs untersuchten wir die Effekte des ANF auf kardiodynamische Parameter, wie linker Ventrikeldruck (LVD), dp/dt max, Herzfrequenz (HF), Koronarfluß (KorF), myokardialer Sauerstoffverbrauch (MSV), auf Enzyme im koronarvenösen Effluat wie Laktat dehydrogenase (LDH) und Kreatinkinase (KK) sowie Laktat, auf metabolische Parameter im Myokard wie Laktat, Glykogen, Adenosintriphosphat (ATP) und Kreatinphosphat (KP) und auf Reperfusionsarrhythmien mittels EKG.
Eine Substanz wird dann als wirksam bezeichnet, wenn nach dem Abklemmen der linken Herzkoronararterie und anschließender Reperfusion keine Arrhythmien - im Vergleich zur unbehandelten Kontrolle - entstehen, wobei das Kammerflimmern (KF) einen meßbaren Parameter darstellt.
Die erfindungsgemäßen Verbindungen wurden in den entsprechenden Konzentrationen vor und nach Okklusion der linken Koronararterie perfundiert (n:10); (n:4). Kontrollherzen wurden mit Krebs-Henseleit-Lösung perfundiert (n:10).

Compound	Myokardiale Gewebsspiegel von ATP	Myokardiale Gewebsspiegel von Glykogen	Myokardiale Gewebsspiegel von KP	Myokardiale Gewebsspiegel von Laktat	HF (Ischämische Periode) [Schläge/Min]	KorF (Ischämische Periode)	LVD (Ischämische Periode)	LVdp/dtmax (Ischämische Periode)	HF (Kontrollperfusionsperiode) [Schläge/Min]	KorF (Kontrollperfusionsperiode)	LVD (Kontrollperfusionsperiode)	LVdp/dtmax (Kontrollperfusionsperiode)	HF (Reperfusionsperiode) [Schläge/Min]	KorF (Reperfusionsperiode)	LVD (Reperfusionsperiode)	LVdp/dtmax (Reperfusionsperiode)	KK (Ischämische Periode)	LDH (Ischämische Periode)	Laktat (Ischämische Periode)	KK (Kontrollperfusionsperiode) [mU/min/g]	other results
human ANF-(103-126) [h-ANF(103-126)]	* 11,01 ± 0,59 µmol/g Trockengewicht	* 113,15 ± 3,74 µmol/g Trockengewicht	* 13,89 ± 0,99 µmol/g Trockengewicht	* 4,03 ± 0,62 µmol/g Trockengewicht	301 ± 5	* 9,0 ± 0,2 ml/Min/g	* 45 ± 3 mmHg	* 1663 ± 117 mmHg • sec^-1	298 ± 4	11,1 ± 0,2 ml/Min/g	* 55 ± 2 mmHg	* 2125 ± 91 mmHg • sec^-1	280 ± 4	* 11,7 ± 0,3 ml/Min/g	* 37 ± 2 mmHg	* 1385 ± 91 mmHg • sec^-1	* 30 ± 2 mU/min/g	* 20 ± 2 mU/min/g	* 0,18 ± 0,01 µmol/min/g	28 ± 3	MSV (Ischämische Periode): * 11,5 ± 0,3 ml/min/100 g; MSV (Kontrollperfusionsperiode): * 14,5 ± 0,3 ml/min/100 g; MSV (Reperfusionsperiode): 14,7 ± 0,4 ml/min/100 g; LDH (Kontrollperfusionsperiode): 21 ± 2 mU/min/g; Laktat (Kontrollperfusionsperiode): * 0,13 ± 0,01 µmol/min/g; KK (Reperfusionsperiode): * 18 ± 2 mU/min/g; LDH (Reperfusionsperiode): * 12 ± 1 mU/min/g; Laktat (Reperfusionsperiode): * 0,12 ± 0,04 µmol/min/g; KF (ventricular fibrillation (Kammerflimmern), Reperfusionsperiode): * 2,7 ± 0,9 Min
CC[C@H](C)[C@@H]1NC(=O)[C@H](CCCNC(=N)N)NC(=O)[C@@H](CC(C)C)NC(=O)[C@H]([C@@H](C)CC)NC(=O)[C@@H](CCCNC(=N)N)NC1=O [cyclo-(D-Arg-Ile-D-Leu-Arg-Ile)] (cyclo(I[dL]RI[dR]))	* 13,25 ± 0,41 µmol/g Trockengewicht	* 121,09 ± 2,97 µmol/g Trockengewicht	* 15,22 ± 0,83 µmol/g Trockengewicht	* 3,87 ± 0,46 µmol/g Trockengewicht	299 ± 7	* 8,7 ± 0,4 ml/Min/g	* 49 ± 4 mmHg	* 1784 ± 109 mmHg • sec^-1	306 ± 7	12,3 ± 0,8 ml/Min/g	68 ± 3 mmHg	2589 ± 101 mmHg • sec^-1	284 ± 10	* 12,9 ± 0,9 ml/Min/g	48 ± 6 mmHg	1724 ± 111 mmHg • sec^-1	* 32 ± 5 mU/min/g	* 22 ± 4 mU/min/g	* 0,24 ± 0,03 µmol/min/g	32 ± 4	LDH (Kontrollperfusionsperiode): 29 ± 5 mU/min/g; Laktat (Kontrollperfusionsperiode): * 0,18 ± 0,04 µmol/min/g; KK (Reperfusionsperiode): * 20 ± 4 mU/min/g; LDH (Reperfusionsperiode): * 14 ± 3 mU/min/g; Laktat (Reperfusionsperiode): * 0,16 ± 0,05 µmol/min/g
